Experimental data reported in article PMC10582582 (Saudi Pharmaceutical Journal : SPJ, 2023).

Tested on: WI-38
Assay: In vitro cytotoxicity against normal cell line WI-38
Type: cell-based
Conditions: Homo sapiens, WI-38, read-out: IC50 WI38

CCN1CCC2(CC1)C/C(=N\N=C\c1ccc(N(C)C)cc1)c1ccccc1O2 [Compound 4c, 4-((E)-{(E)-[1′-Ethylspiro(chroman-2,4′-piperidin)-4-ylidene]hydrazono}methyl)-N,N-dimethylaniline]
IC50: 55.3 ± 3.3 µM

CN1CCC2(CC1)C/C(=N\N=C\c1ccc(O)cc1)c1ccccc1O2 [Compound 4d, 4-((E)-{(E)-[1′-Methylspiro(chroman-2,4′-piperidin)-4-ylidene]hydrazono}methyl)phenol]
IC50: 33.3 ± 2.3 µM

CN1CCC2(CC1)C/C(=N\N=C\c1ccc(N(C)C)cc1)c1ccccc1O2 [Compound 4b, N,N-Dimethyl-4-((E)-{(E)-[1′-methylspiro(chroman-2,4′-piperidin)-4-ylidene]hydrazono}methyl)aniline]
IC50: 60.4 ± 3.7 µM

CN1CCC2(CC1)C/C(=N\N=C\c1ccc(Cl)cc1)c1ccccc1O2 [Compound 4a, (E)-4-[(E)-(4-Chlorobenzylidene)hydrazono]-1′-methylspiro(chroman-2,4′-piperidine)]
IC50: 75.7 ± 4.3 µM

CN(C)C/C=C/C(=O)Nc1cc2c(Nc3ccc(F)c(Cl)c3)ncnc2cc1O[C@H]1CCOC1 [Afatinib, reference compound]
IC50: 49.5 ± 2.5 µM
